The record followed here is patent publication US9216971B2 (priority 2007, dated 2015).

Like-named read-outs stand apart in the source and are kept apart here.

For experiment [1], the system named is MCh response. Conditions: rat.
Experiment [2] has as its system pilocarpine-induced salivation. As to the kind of experiment: Rat antisialagogue assay. Conditions: evaluated at 1, 6, and 24 hours post-dose. It counts as in vivo. The protocol:
Rats (Sprague-Dawley, male, 250-350 g) are dosed, anesthetized and cannulated as described for Assay 3. At predetermined time points and after surgery, animals are placed on their dorsal side at a 20° incline with their head in a downward slope. A pre-weighed gauze pad is inserted in the animal's mouth and the muscarinic agonist pilocarpine (PILO) (3 mg/kg, IV) is administered. Saliva produced during 10 minutes post-PILO is measured gravimetrically by determining the weight of the gauze pad before and after PILO. Antisialagogue effects are expressed as % inhibition of salivation relative to control animals.
The rat antisialagogue assay was developed to assess systemic exposure and calculate the lung selectivity index (LSI) of test compounds. The standard, tiotropium, was evaluated in this model at 1, 6, and 24 hours post-dose. […] This finding is consistent with the peak effects observed in the Einthoven assay.
This model is a modified version of the procedure described in Rechter, “Estimation of anticholinergic drug effects in mice by antagonism against pilocarpine-induced salivation” Ata Pharmacol Toxicol 24:243-254 (1996). The mean weight of saliva in vehicle-treated animals, at each pre-treatment time, is calculated and used to compute % inhibition of salivation, at the corresponding pre-treatment time, at each dose.

Experiment [3] has as its target T1, hM3 muscarinic receptor subtype (Homo sapiens, UniProt P20309).
T1 construct: expressed in transfected cells; membranes prepared
As to the kind of experiment: biochemical. It counts as binding.

The target in experiment [4] is T2, hM2 receptor (Homo sapiens, UniProt P08172).
T2 construct: expressed in transfected cells; host or cells: CHO-K1 cells
T2 sequence (P08172 1-466): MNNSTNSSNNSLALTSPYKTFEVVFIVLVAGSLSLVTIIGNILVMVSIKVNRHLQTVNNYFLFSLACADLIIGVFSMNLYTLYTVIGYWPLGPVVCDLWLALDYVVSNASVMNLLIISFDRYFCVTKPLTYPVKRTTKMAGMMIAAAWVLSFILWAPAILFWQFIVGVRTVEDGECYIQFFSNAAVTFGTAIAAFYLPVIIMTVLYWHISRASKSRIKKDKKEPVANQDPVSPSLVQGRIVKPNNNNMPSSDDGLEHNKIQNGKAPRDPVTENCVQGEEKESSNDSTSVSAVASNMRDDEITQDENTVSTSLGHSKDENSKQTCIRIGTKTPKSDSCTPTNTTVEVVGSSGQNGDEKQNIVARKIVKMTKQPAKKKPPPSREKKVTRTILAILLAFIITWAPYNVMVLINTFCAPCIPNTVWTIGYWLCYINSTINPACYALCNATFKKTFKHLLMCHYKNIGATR
As to the kind of experiment: Blockade of agonist-mediated inhibition of cAMP accumulation. It is filed as cell-based. Conditions: CHO-K1 cells expressing the hM2 receptor; read-out: Ki for blockade of oxotremorine-inhibition of forskolin-mediated cAMP accumulation. On the technique in general: Cyclic AMP is a second messenger, typically raised through Gs and lowered through Gi signalling.

T1 sequence (P20309 whole entry): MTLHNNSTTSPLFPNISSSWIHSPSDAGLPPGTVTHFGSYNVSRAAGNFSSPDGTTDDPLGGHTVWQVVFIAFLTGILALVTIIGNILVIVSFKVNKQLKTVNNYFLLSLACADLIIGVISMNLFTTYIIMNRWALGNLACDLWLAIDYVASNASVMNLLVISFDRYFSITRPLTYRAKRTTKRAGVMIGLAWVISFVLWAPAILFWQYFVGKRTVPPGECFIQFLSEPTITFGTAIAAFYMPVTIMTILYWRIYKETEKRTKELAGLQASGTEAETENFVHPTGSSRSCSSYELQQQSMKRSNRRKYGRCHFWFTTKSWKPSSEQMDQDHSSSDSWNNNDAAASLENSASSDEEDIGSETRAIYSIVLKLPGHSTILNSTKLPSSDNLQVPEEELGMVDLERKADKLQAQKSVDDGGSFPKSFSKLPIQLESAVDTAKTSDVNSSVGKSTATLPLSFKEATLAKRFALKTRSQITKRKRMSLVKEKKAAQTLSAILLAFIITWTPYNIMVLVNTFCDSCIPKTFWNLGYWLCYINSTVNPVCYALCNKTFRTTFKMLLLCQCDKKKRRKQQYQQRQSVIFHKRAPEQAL

Turning to `C[N+]1(C)[C@@H]2C[C@@H](OC(=O)C(O)(c3cccs3)c3cccs3)C[C@H]1[C@@H]1O[C@@H]12` [tiotropium], in experiment [1] (in vivo), the “ID50 (bronchoprotective potency)” value came out at 6 µg/mL; the “fold more potent at 6 hour and 24 hour compared to 1.5 hour potency” value is “about 2 fold”; the “time of peak bronchoprotection post-dose” value came to 6 h. Besides, the “time post dose at which most potent at inhibiting pilocarpine-induced salivation” value in experiment [2] is 6 h.

Regarding `CC(C)[N+]1(C)[C@@H]2CC[C@H]1C[C@@H](OC(=O)C(CO)c1ccccc1)C2` (stereo partly shown) [ipratropium], in experiment [1] (in vivo), the “ID50 (bronchoprotective potency)” value amounted to 4.4 µg/mL and the “fold less potent 6-hours post-dose compared to 1.5 hour potency” value is on record as “about 3 fold”.

For the molecule `C[N+](C)(CCc1ccccc1)C1CCN(C(=O)[C@](O)(c2ccccc2)C2CCCC2)CC1` [Example 1, [1-((R)-2-cyclopentyl-2-hydroxy-2-phenylacetyl)piperidin-4-yl]dimethylphenethylammonium], in experiment [3], the Ki (usually the equilibrium dissociation constant of an inhibitor or competing ligand from its target) was below 1 nM.

With `C[N+](C)(CCc1cccc(O)c1)C1CCN(C(=O)[C@](O)(c2ccccc2)C2CCCC2)CC1` [Example 2, [1-((R)-2-cyclopentyl-2-hydroxy-2-phenylacetyl)piperidin-4-yl][2-(3-hydroxyphenyl)ethyl]dimethylammonium], the Ki in experiment [3] and in experiment [4] was below 1 nM throughout.

Consider `C[N+]1(C)CCC(OC(=O)C(O)(c2ccccc2)C2CCCC2)C1` (stereo not shown) [glycopyrrolate], for which the “ID50 (bronchoprotective potency)” value in experiment [1] (inhalation, 1.5 hours post-dose) was 15 µg/mL.
